Laboratory results from ChEMBL document CHEMBL3045955, “Design, synthesis and structure-activity relationship of novel insecticidal dichloro-allyloxy-phenol derivatives containing substituted pyrazol-3-ols” (2013).

Experiments:
Assay type in all cases: functional
Settings in all cases: 72 h
Plutella xylostella [1] = test: Insecticidal activity against third-instar larvae of Plutella xylostella (diamondback moth) fed on compound treated cabbage leaves assessed as mortality at 100 mg/l after 3 days relative to control
Plutella xylostella [2] = test: Insecticidal activity against third-instar larvae of Plutella xylostella (diamondback moth) fed on compound treated cabbage leaves assessed as mortality at 25 mg/l after 3 days relative to control
Plutella xylostella [3] = test: Insecticidal activity against third-instar larvae of Plutella xylostella (diamondback moth) fed on compound treated cabbage leaves assessed as mortality at 6.25 mg/l after 3 days relative to control

Structure (SMILES) | mortality at 100 µg/mL (Plutella xylostella [1]) [%] | mortality at 25 µg/mL (Plutella xylostella [2]) [%] | mortality at 6.25 µg/mL (Plutella xylostella [3]) [%]
Cc1ccc(-c2cc(OCCCOc3c(Cl)cc(OCC=C(Cl)Cl)cc3Cl)nn2C)cc1C | 80 | 50 | 0
CCc1ccc(-c2cc(OCCCOc3c(Cl)cc(OCC=C(Cl)Cl)cc3Cl)nn2C)cc1 | 70 | 40 | 30
Cn1nc(OCCCOc2c(Cl)cc(OCC=C(Cl)Cl)cc2Cl)cc1-c1ccc(Cl)cc1 | 100 | 100 | 65
Cn1nc(OCCCOc2c(Cl)cc(OCC=C(Cl)Cl)cc2Cl)cc1-c1ccc(Cl)cc1Cl | 100 | 80 | 0
Cc1ccc(-c2c(C)c(OCCOc3c(Cl)cc(OCC=C(Cl)Cl)cc3Cl)nn2C)cc1 | 17 | 0 | 0
CCc1ccc(-c2c(C)c(OCCOc3c(Cl)cc(OCC=C(Cl)Cl)cc3Cl)nn2C)cc1 | 67 | 33 | 0
Cc1ccc(-c2c(C)c(OCCCCOc3c(Cl)cc(OCC=C(Cl)Cl)cc3Cl)nn2C)cc1 | 100 | 50 | 42
CCc1ccc(-c2c(C)c(OCCCCOc3c(Cl)cc(OCC=C(Cl)Cl)cc3Cl)nn2C)cc1 | 100 | 50 | 10
Cc1c(OCCCOc2c(Cl)cc(OCC=C(Cl)Cl)cc2Cl)nn(C)c1-c1ccccc1 | 100 | 30 | 0
Cc1ccc(-c2c(C)c(OCCCOc3c(Cl)cc(OCC=C(Cl)Cl)cc3Cl)nn2C)cc1 | 100 | 100 | 95
Cc1ccc(-c2c(C)c(OCCCOc3c(Cl)cc(OCC=C(Cl)Cl)cc3Cl)nn2C)c(C)c1 | 90 | 60 | 30
Cc1ccc(-c2c(C)c(OCCCOc3c(Cl)cc(OCC=C(Cl)Cl)cc3Cl)nn2C)cc1C | 100 | 100 | 87
Cc1ccc(C)c(-c2c(C)c(OCCCOc3c(Cl)cc(OCC=C(Cl)Cl)cc3Cl)nn2C)c1 | 75 | 67 | 37
CCc1ccc(-c2c(C)c(OCCCOc3c(Cl)cc(OCC=C(Cl)Cl)cc3Cl)nn2C)cc1 | 100 | 77 | 60
Cc1c(OCCCOc2c(Cl)cc(OCC=C(Cl)Cl)cc2Cl)nn(C)c1-c1ccc(C(C)C)cc1 | 100 | 100 | 85
Cc1c(OCCCOc2c(Cl)cc(OCC=C(Cl)Cl)cc2Cl)nn(C)c1-c1ccc(C(C)(C)C)cc1 | 100 | 87 | 30
Cc1c(OCCCOc2c(Cl)cc(OCC=C(Cl)Cl)cc2Cl)nn(C)c1-c1ccc(F)cc1 | 100 | 80 | 30
Cc1c(OCCCOc2c(Cl)cc(OCC=C(Cl)Cl)cc2Cl)nn(C)c1-c1ccc(Cl)cc1 | 80 | 50 | 20
Cc1c(OCCCOc2c(Cl)cc(OCC=C(Cl)Cl)cc2Cl)nn(C)c1-c1ccc(Cl)cc1Cl | 85 | 80 | 67
Cc1c(OCCCOc2c(Cl)cc(OCC=C(Cl)Cl)cc2Cl)nn(C)c1-c1ccc(Cl)c(Cl)c1 | 100 | 75 | 50
COc1ccc(-c2c(C)c(OCCCOc3c(Cl)cc(OCC=C(Cl)Cl)cc3Cl)nn2C)cc1 | 100 | 40 | 10
CCOc1ccc(-c2c(C)c(OCCCOc3c(Cl)cc(OCC=C(Cl)Cl)cc3Cl)nn2C)cc1 | 100 | 20 | 10
Cn1nc(OCCCOc2c(Cl)cc(OCC=C(Cl)Cl)cc2Cl)cc1-c1ccccc1 | 100 | 100 | 75
Cc1ccccc1-c1cc(OCCCOc2c(Cl)cc(OCC=C(Cl)Cl)cc2Cl)nn1C | 100 | 70 | 40
Cc1ccc(-c2cc(OCCCOc3c(Cl)cc(OCC=C(Cl)Cl)cc3Cl)nn2C)c(C)c1 | 90 | 50 | 30
FC(F)(F)c1ccc(OCCCOc2c(Cl)cc(OCC=C(Cl)Cl)cc2Cl)nc1 [PYRIDALYL] | 100 | 100 | 65
